These results are taken from patent publication US20240025906A1 (NEURON23, INC., priority 2022, published 2024).

One experiment deals with T1, TYK2 JH2 (Homo sapiens, UniProt P29597).
T1 construct: purchased DiscoverX (KINOMEscan KdELECT service); host or cells: E. coli BL21-derived (T7 phage display) or HEK-293
Briefly: TYK2 JH2 binding assay (KINOMEscan KdELECT competitive binding). As to conditions: TYK2 JH2 domain, KINOMEscan KdELECT (Assay A); read-out: Biochemical TYK2_JH2_Kd. A digest of the protocol:
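JH2-domain fragment, expressed as T7 phage tag in BL21-derived E. coli or DNA-tagged from HEK-293, competed with test compound against bead-immobilized biotinylated ligand in binding buffer (0.9% DMSO). 1 h shaking at room temperature; bound kinase eluted with 0.5 μM free ligand and quantified by qPCR. Kd from 11-point 3-fold dilutions.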

For experiment [1], the system named is JAK1/TYK2 pSTAT5 (Tyr694/699) in THP-1 cell line. Put plainly: IFNa-stimulated JAK1/TYK2 pSTAT5 (Tyr694/699) inhibition cellular assay, AlphaLISA. The experiment is classed as cell-based. Particulars: Homo sapiens; THP-1 cells, IFNa-stimulated, AlphaLISA (Assay B); read-out: Cellular THP1_IFNa-pSTATS_IC50. A digest of the protocol: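 THP-1 cells (2e4/well) in HBSS preincubated 1 h at 37° C. with compound (final 10000–0.04 nM, 8 points, 6-fold), then stimulated with IFNa (100 ng/mL stock) for 30 min before lysis. pSTAT5 (Tyr694/699) read by AlphaLISA at 615 nm; IC50 from four-parameter logistic fit with bottom fixed at 0 and Hill slope at −1.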
On the technique in general: Alpha assays give light when donor and acceptor beads are brought close together.

T1 sequence (P29597 589-875 limits assumed): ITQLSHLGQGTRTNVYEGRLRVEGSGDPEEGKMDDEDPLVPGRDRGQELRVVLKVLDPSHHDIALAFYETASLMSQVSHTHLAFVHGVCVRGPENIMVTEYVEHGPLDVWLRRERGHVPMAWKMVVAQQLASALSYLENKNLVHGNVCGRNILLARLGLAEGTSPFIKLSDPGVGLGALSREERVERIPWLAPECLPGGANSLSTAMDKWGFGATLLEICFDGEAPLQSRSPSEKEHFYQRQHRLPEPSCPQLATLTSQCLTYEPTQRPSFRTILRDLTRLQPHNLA

As for `CNc1ncc(C#Cc2ccccc2)c2cc(NC(=O)C3CC3)ncc12` [Example 137, N-(8-(methylamino)-5-(phenylethynyl)-2,7-naphthyridin-3-yl)cyclopropanecarboxamide], on TYK2 JH2, the Kd was at most 100 nM. For the same molecule, the IC50 in experiment [1] was at most 500 nM.

`CNc1ncc(-c2cc(C)ns2)c2cc(NC(=O)C3CC3)ncc12` [Example 138, N-(8-(methylamino)-5-(3-methylisothiazol-5-yl)-2,7-naphthyridin-3-yl)cyclopropanecarboxamide]: the Kd on TYK2 JH2 is at most 100 nM. Further, in experiment [1], the IC50 is over 500 nM.

In the case of `CNc1ncc(-c2nc3ccccc3[nH]2)c2cc(NC(=O)C3CC3)ncc12` [Example 139, N-(5-(1H-benzo[d]imidazol-2-yl)-8-(methylamino)-2,7-naphthyridin-3-yl)cyclopropanecarboxamide], the Kd on TYK2 JH2 is at most 100 nM. Further, the IC50 in experiment [1] is over 500 nM.

As to `CNc1ncc(-c2nc(C)c[nH]2)c2cc(NC(=O)C3CC3)ncc12` [Example 140, N-(5-(4-methyl-1H-imidazol-2-yl)-8-(methylamino)-2,7-naphthyridin-3-yl)cyclopropanecarboxamide], the Kd at TYK2 JH2 was at most 100 nM. Besides, in experiment [1], the IC50 is over 500 nM.

Turning to `CNc1ncc(-c2ncn(C)n2)c2cc(NC(=O)C3CC3)ncc12` [Example 141, N-(S-(1-methyl-1H-1,2,4-triazol-3-yl)-8-(methylamino)-2,7-naphthyridin-3-yl)cyclopropanecarboxamide], the Kd at TYK2 JH2 is at most 100 nM. The IC50 in experiment [1] was over 500 nM.

`CNc1ncc(-c2nc3ccccc3o2)c2cc(NC(=O)C3CC3)ncc12` [Example 142, N-(5-(benzo[d]oxazol-2-yl)-8-(methylamino)-2,7-naphthyridin-3-yl)cyclopropanecarboxamide]: the Kd on TYK2 JH2 is at most 100 nM. Also, the IC50 in experiment [1] is at most 500 nM.

For the molecule `CNc1ncc(-c2ccc(C)o2)c2cc(NC(=O)C3CC3)ncc12` [Example 143, N-(8-(methylamino)-5-(5-methylfuran-2-yl)-2,7-naphthyridin-3-yl)cyclopropanecarboxamide], the Kd at TYK2 JH2 is at most 100 nM. In experiment [1], the IC50 was at most 500 nM.

Turning to `CNc1ncc(-c2ccc(C(=O)C3CC3)cc2)c2cc(NC(=O)C3CC3)ncc12` [Example 144, N-(5-(4-(cyclopropanecarbonyl)phenyl)-8-(methylamino)-2,7-naphthyridin-3-yl)cyclopropanecarboxamide], the Kd at TYK2 JH2 was at most 100 nM. The IC50 in experiment [1] is over 500 nM.

For `CNc1ncc(-c2nc3ccccc3s2)c2cc(NC(=O)C3CC3)ncc12` [Example 145, N-(5-(benzo[d]thiazol-2-yl)-8-(methylamino)-2,7-naphthyridin-3-yl)cyclopropanecarboxamide], the Kd on TYK2 JH2 was at most 100 nM. In experiment [1], the IC50 is at most 500 nM.

Regarding `CCn1ccc(-c2cnc(NC)c3cnc(NC(=O)C4CC4)cc23)n1` [Example 147, N-(5-(1-ethyl-1H-pyrazol-3-yl)-8-(methylamino)-2,7-naphthyridin-3-yl)cyclopropanecarboxamide], the Kd on TYK2 JH2 is at most 100 nM. Also, the IC50 in experiment [1] was at most 500 nM.

With `CNc1ncc(-c2ccn(C(C)C)n2)c2cc(NC(=O)C3CC3)ncc12` [Example 148, N-(5-(1-isopropyl-1H-pyrazol-3-yl)-8-(methylamino)-2,7-naphthyridin-3-yl)cyclopropanecarboxamide], on TYK2 JH2, the Kd was at most 100 nM. The IC50 in experiment [1] was at most 500 nM.

With `CNc1ncc(-c2ccn(CC(C)C)n2)c2cc(NC(=O)C3CC3)ncc12` [Example 149, N-(5-(1-isobutyl-1H-pyrazol-3-yl)-8-(methylamino)-2,7-naphthyridin-3-yl)cyclopropanecarboxamide], the Kd on TYK2 JH2 is at most 100 nM. Besides, the IC50 in experiment [1] is over 500 nM.

Take `CNc1ncc(-c2ccn(Cc3ncn(C)n3)n2)c2cc(NC(=O)C3CC3)ncc12` [Example 150, N-(5-(1-((1-methyl-1H-1,2,4-triazol-3-yl)methyl)-1H-pyrazol-3-yl)-8-(methylamino)-2,7-naphthyridin-3-yl)cyclopropanecarboxamide]: the Kd at TYK2 JH2 was at most 100 nM. In experiment [1], the IC50 was over 500 nM.

For `CNc1ncc(-c2ccn(Cc3nccs3)n2)c2cc(NC(=O)C3CC3)ncc12` [Example 151, N-(8-(methylamino)-5-(1-(thiazol-2-ylmethyl)-1H-pyrazol-3-yl)-2,7-naphthyridin-3-yl)cyclopropanecarboxamide], the Kd on TYK2 JH2 was at most 100 nM. Also, the IC50 in experiment [1] is over 500 nM.

Turning to `CNc1ncc(-c2ccn(Cc3noc(C)n3)n2)c2cc(NC(=O)C3CC3)ncc12` [Example 152, N-(5-(1-((5-methyl-1,2,4-oxadiazol-3-yl)methyl)-1H-pyrazol-3-yl)-8-(methylamino)-2,7-naphthyridin-3-yl)cyclopropanecarboxamide], the Kd on TYK2 JH2 was at most 100 nM. Also, in experiment [1], the IC50 was over 500 nM.

As for `CNc1ncc(-c2ccn(CC3CCSCC3)n2)c2cc(NC(=O)C3CC3)ncc12` [Example 153A, N-(8-(methylamino)-5-(1-((tetrahydro-2H-thiopyran-4-yl)methyl)-1H-pyrazol-3-yl)-2,7-naphthyridin-3-yl)cyclopropanecarboxamide], the Kd at TYK2 JH2 is at most 100 nM. In addition, the IC50 in experiment [1] is over 500 nM.

Take `CNc1ncc(-c2ccn(CC3CCS(=O)(=O)CC3)n2)c2cc(NC(=O)C3CC3)ncc12` [Example 153B, N-(5-(1-((1,1-dioxidotetrahydro-2H-thiopyran-4-yl)methyl)-1H-pyrazol-3-yl)-8-(methylamino)-2,7-naphthyridin-3-yl)cyclopropanecarboxamide]: the Kd at TYK2 JH2 was at most 100 nM. Besides, the IC50 in experiment [1] is over 500 nM.

As to `CNc1ncc(-c2ccn(Cc3ccccn3)n2)c2cc(NC(=O)C3CC3)ncc12` [Example 154, N-(8-(methylamino)-5-(1-(pyridin-2-ylmethyl)-1H-pyrazol-3-yl)-2,7-naphthyridin-3-yl)cyclopropanecarboxamide], on TYK2 JH2, the Kd is at most 100 nM. Besides, the IC50 in experiment [1] was over 500 nM.

`CNc1ncc(-c2nc3ccccn3n2)c2cc(NC(=O)C3CC3)ncc12` [Example 155, N-(5-([1,2,4]triazolo[1,5-a]pyridin-2-yl)-8-(methylamino)-2,7-naphthyridin-3-yl)cyclopropanecarboxamide]: the Kd at TYK2 JH2 was at most 100 nM. Also, the IC50 in experiment [1] is at most 500 nM.

As for `CNc1ncc(-c2ccn3nc(N4CCC4)nc3c2)c2cc(NC(=O)C3CC3)ncc12` [Example 156, N-(5-(2-(azetidin-1-yl)-[1,2,4]triazolo[1,5-a]pyridin-7-yl)-8-(methylamino)-2,7-naphthyridin-3-yl)cyclopropanecarboxamide], the Kd on TYK2 JH2 is at most 100 nM. The IC50 in experiment [1] was over 500 nM.

On to `CNc1ncc(-c2nc(-c3ccccc3)co2)c2cc(NC(=O)C3CC3)ncc12` [Example 157, N-(8-(methylamino)-5-(4-phenyloxazol-2-yl)-2,7-naphthyridin-3-yl)cyclopropanecarboxamide], for which the Kd at TYK2 JH2 is at most 100 nM. Also, in experiment [1], the IC50 is at most 500 nM.

Regarding `O=C(Nc1cc2c(-c3ccccc3)cnc(NCCO)c2cn1)C1CC1` [Example 160, N-(8-((2-hydroxyethyl)amino)-5-phenyl-2,7-naphthyridin-3-yl)cyclopropanecarboxamide], the Kd on TYK2 JH2 is at most 100 nM. The IC50 in experiment [1] was over 500 nM.

For the molecule `CNc1ncc(-c2ccccc2)c2cc(NC(=O)C3(F)CC3)ncc12` [Example 161, 1-fluoro-N-(8-(methylamino)-5-phenyl-2,7-naphthyridin-3-yl)cyclopropane-1-carboxamide], the Kd on TYK2 JH2 is at most 100 nM. Also, in experiment [1], the IC50 is over 500 nM.

Turning to `CNc1ncc(-c2ccccc2)c2cc(NC(C)C)ncc12` [Example 162, N^6-isopropyl-N^1-methyl-4-phenyl-2,7-naphthyridine-1,6-diamine], the Kd at TYK2 JH2 lay in the range of 100 to 1000 nM. For the same molecule, in experiment [1], the IC50 was over 500 nM.

Turning to `CNc1nc(C)cc2cc(NC(=O)C3CC3)ncc12` [Example 163, N-(6-methyl-8-(methylamino)-2,7-naphthyridin-3-yl)cyclopropanecarboxamide], the Kd at TYK2 JH2 was 100 to 1000 nM. Also, the IC50 in experiment [1] is over 500 nM.

With `C=Cc1cc2cc(NC(=O)C3CC3)ncc2c(NC)n1` [Example 164, N-(8-(methylamino)-6-vinyl-2,7-naphthyridin-3-yl)cyclopropanecarboxamide], the Kd at TYK2 JH2 was 100 to 1000 nM. Further, the IC50 in experiment [1] is over 500 nM.

For the molecule `CCc1cc2cc(NC(=O)C3CC3)ncc2c(NC)n1` [Example 165, N-(6-ethyl-8-(methylamino)-2,7-naphthyridin-3-yl)cyclopropanecarboxamide], the Kd on TYK2 JH2 is at most 100 nM. The IC50 in experiment [1] was over 500 nM.

Consider `CNc1ncc(-c2ccc(-n3cccn3)cc2)c2cc(NC(=O)C3CC3)ncc12` [Example 166, N-(5-(4-(1H-pyrazol-1-yl)phenyl)-8-(methylamino)-2,7-naphthyridin-3-yl)cyclopropanecarboxamide], for which the Kd at TYK2 JH2 is at most 100 nM. Besides, the IC50 in experiment [1] was over 500 nM.

`CNc1ncc(/C=C/c2cccc(OC)c2)c2cc(NC(=O)C3CC3)ncc12` [Example 167, (E)-N-(5-(3-methoxystyryl)-8-(methylamino)-2,7-naphthyridin-3-yl)cyclopropanecarboxamide]: on TYK2 JH2, the Kd is at most 100 nM. Moreover, the IC50 in experiment [1] is at most 500 nM.

As to `CNc1ncc(-c2cccc(COC)c2)c2cc(NC(=O)C3CC3)ncc12` [Example 168, N-(5-(3-(methoxymethyl)phenyl)-8-(methylamino)-2,7-naphthyridin-3-yl)cyclopropanecarboxamide], the Kd on TYK2 JH2 is at most 100 nM. Moreover, in experiment [1], the IC50 is over 500 nM.
